From patent US20120122870A1, “Treatment Of Ischemia-Reperfusion Injury” (MUSC FOUNDATION FOR RESEARCH DEVELOPMENT, priority 2009, published 2012)

tested on: endogenous SK activity in MDA-MB-231 cells; assay: Cellular S1P production (endogenous SK activity) in MDA-MB-231 cells; type: cell-based; conditions: Homo sapiens, MDA-MB-231, MDA-MB-231 cells incubated with 20 μg/mL of compound; percentage of S1P production inhibited
Procedure: Human SK was incubated with 6 μg/mL of the indicated compounds, and then assayed for activity as described above. Values in the column labeled “Recombinant SK (% inhibition)” represent the percentage of SK activity that was inhibited. MDA-MB-231 cells were incubated with 20 μg/mL of the indicated compounds and then assayed for endogenous SK activity as indicated above. Values in the column labeled “Cellular S1P (% inhibition)” represent the percentage of S1P production that was inhibited. Additionally, MDA-MB-231 cells were treated with varying concentration of certain compounds and the amount of S1P produced by the cells was determined. Values in the column labeled “Cellular S1P IC50 (μM)” represent the concentration of compound required to inhibit the production of S1P by 50%. ND=not determined.

SMILES | inhibition at 20 µg/mL
O=C(NCCc1ccc(O)c(O)c1)C12CC3CC(C1)CC(c1ccc(Cl)cc1)(C3)C2 [A44, 3-(4-Chloro-phenyl)-adamantane-1-carboxylic acid [2-(3,4-dihydroxy-phenyl)-ethyl]-amide] | 88%
CC(C)NCC12CC3CC(C1)CC(c1ccc(Cl)cc1)(C3)C2 [A75, [3-(4-Chloro-phenyl)-adamantan-1-ylmethyl]-isopropyl-amine] | 41%
O=C(Nc1ccc(Cl)c(C(F)(F)F)c1)Nc1nc(-c2ccc(Cl)cc2)cs1 [B1, 1-[4-(4-Chloro-phenyl)-thiazol-2-yl]-3-(4-chloro-3-trifluoromethyl-phenyl)-urea] | 32%
CCCCCCCCCCCCCC(=O)Nc1nc(-c2ccc(Cl)cc2)cs1 [B2, Tetradecanoic acid [4-(4-chloro-phenyl)-thiazol-2-yl]-amide] | 43%
C=CCCCCCCCCC(=O)Nc1nc(-c2ccc(Cl)cc2)cs1 [B4, Undec-10-enoic acid [4-(4-chloro-phenyl)-thiazol-2-yl]-amide] | 39%
O=C(C=Cc1ccc([N+](=O)[O-])cc1)Nc1nc(-c2ccc(Cl)cc2)cs1 [B5, N-[4-(4-Chloro-phenyl)-thiazol-2-yl]-3-(4-nitro-phenyl)-acrylamide] | 25%
CCCCCCCCC=CCCCCCCCC(=O)Nc1nc(-c2ccc(Cl)cc2)cs1 [B6, Octadec-9-enoic acid [4-(4-chloro-phenyl)-thiazol-2-yl]-amide] | 21%
O=C(C=Cc1ccccc1)Nc1nc(-c2ccc(Cl)cc2)cs1 [B7, N-[4-(4-Chloro-phenyl)-thiazol-2-yl]-3-phenyl-acrylamide] | 21%
CCCC(=O)Oc1ccc(C=CC(=O)Nc2nc(-c3ccc(Cl)cc3)cs2)cc1OC [B8, Butyric acid 4-{2-[4-(4-chloro-phenyl)-thiazol-2-ylcarbamoyl]-vinyl}-2-methoxy-phenyl ester] | 80%
COc1cc(C=CC(=O)Nc2nc(-c3cccc(Cl)c3)cs2)ccc1O [B9, N-[4-(3-Chloro-phenyl)-thiazol-2-yl]-3-(4-hydroxy-3-methoxy-phenyl)-acrylamide] | 32%
COc1cc(C=CC(=O)Nc2nc(-c3ccc(Cl)cc3)cs2)ccc1OC(C)=O [B10, Acetic acid 4-{2-[4-(4-chloro-phenyl)-thiazol-2-ylcarbamoyl]-vinyl}-2-methoxy-phenyl ester] | 48%
CCCC(=O)Oc1ccc(C=CC(=O)Nc2nc(-c3ccc(Cl)cc3)cs2)cc1OC(=O)CCC [B11, Butyric acid 2-butyryloxy-5-{2-[4-(4-chloro-phenyl)-thiazol-2-ylcarbamoyl]-vinyl}-phenyl ester] | 55%
CC(=O)Oc1ccc(C=CC(=O)Nc2nc(-c3ccc(Cl)cc3)cs2)cc1 [B12, Acetic acid 4-{2-[4-(4-chloro-phenyl)-thiazol-2-ylcarbamoyl]-vinyl}-phenyl ester] | 13%
CCCC(=O)Oc1ccccc1C=CC(=O)Nc1nc(-c2ccc(Cl)cc2)cs1 [B13, Butyric acid 2-{2-[4-(4-chloro-phenyl)-thiazol-2-ylcarbamoyl]-vinyl}-phenyl ester] | 0%
CCCC(=O)Oc1cccc(C=CC(=O)Nc2nc(-c3ccc(Cl)cc3)cs2)c1 [B14, Butyric acid 3-{2-[4-(4-chloro-phenyl)-thiazol-2-ylcarbamoyl]-vinyl}-phenyl ester] | 39%
CCCC(=O)Oc1ccc(C=CC(=O)Nc2nc(-c3ccc(Cl)cc3)cs2)cc1 [B15, Butyric acid 4-{2-[4-(4-chloro-phenyl)-thiazol-2-ylcarbamoyl]-vinyl}-phenyl ester] | 23%
CCCC(=O)Oc1ccc(CC(=O)Nc2nc(-c3ccc(Cl)cc3)cs2)cc1OC [B16, Butyric acid 4-{[4-(4-chloro-phenyl)-thiazol-2-ylcarbamoyl]-methyl}-2-methoxy-phenyl ester] | 83%
CCCC(=O)Oc1ccc(CC(=O)Nc2nc(-c3ccc(Cl)cc3)cs2)cc1OC(=O)CCC [B17, Butyric acid 2-butyryloxy-5-{[4-(4-chloro-phenyl)-thiazol-2-ylcarbamoyl]-methyl}-phenyl ester] | 57%
CCCC(=O)Oc1cc(C=CC(=O)Nc2nc(-c3ccc(Cl)cc3)cs2)ccc1OC [B18, Butyric acid 5-{2-[4-(4-chloro-phenyl)-thiazol-2-ylcarbamoyl]-vinyl}-2-methoxy-phenyl ester] | 65%
CCCC(=O)Oc1ccc(C=CC(=O)Nc2nc(-c3ccc(C)cc3)cs2)cc1OC [B19, Butyric acid 2-methoxy-4-[2-(4-p-tolyl-thiazol-2-ylcarbamoyl)-vinyl]-phenyl ester] | 53%

SMILES | inhibition at 20 µg/mL
CCCC(=O)Oc1ccc(C=CC(=O)Nc2nc(-c3ccc(Br)cc3)cs2)cc1OC [B20, Butyric acid 4-{2-[4-(4-bromo-phenyl)-thiazol-2-ylcarbamoyl]-vinyl}-2-methoxy-phenyl ester] | 62%
O=C(C=Cc1ccc2c(c1)OCO2)Nc1nc(-c2ccc(Cl)cc2)cs1 [B21, 3-Benzo[1,3]dioxol-5-yl-N-[4-(4-chloro-phenyl)-thiazol-2-yl]-acrylamide] | 41%
O=C(Cc1ccc2c(c1)OCO2)Nc1nc(-c2ccc(Cl)cc2)cs1 [B22, 2-Benzo[1,3]dioxol-5-yl-N-[4-(4-chloro-phenyl)-thiazol-2-yl]-acetamide] | 33%
COc1ccc(CCC(=O)Nc2nc(-c3ccc(Cl)cc3)cs2)cc1OC [B23, N-[4-(4-Chloro-phenyl)-thiazol-2-yl]-3-(3,4-dimethoxy-phenyl)-propionamide] | 14%
CCCC(=O)Oc1ccc(C(=O)Nc2nc(-c3ccc(Cl)cc3)cs2)cc1OC [B24, Butyric acid 4-[4-(4-chloro-phenyl)-thiazol-2-ylcarbamoyl]-2-methoxy-phenyl ester] | 69%
CCCC(=O)Oc1ccc(C(=O)Nc2nc(-c3ccc(Cl)cc3)cs2)cc1OC(=O)CCC [B25, Butyric acid 2-butyryloxy-4-[4-(4-chloro-phenyl)-thiazol-2-ylcarbamoyl]-phenyl ester] | 79%
CCCC(=O)Oc1ccc(CCC(=O)Nc2nc(-c3ccc(Cl)cc3)cs2)cc1OC(=O)CCC [B26, Butyric acid 2-butyryloxy-4-{2-[4-(4-chloro-phenyl)-thiazol-2-ylcarbamoyl]-ethyl}-phenyl ester] | 79%
CCCC(=O)Oc1cc(C(=O)Nc2nc(-c3ccc(Cl)cc3)cs2)cc(OC(=O)CCC)c1OC(=O)CCC [B27, Butyric acid 2,6-bis-butyryloxy-4-[4-(4-chloro-phenyl)-thiazol-2-ylcarbamoyl]-phenyl ester] | 68%
CCCC(=O)Oc1ccc(C=CC(=O)Nc2nc(-c3ccc(F)cc3)cs2)cc1OC [B28, Butyric acid 4-{2-[4-(4-fluoro-phenyl)-thiazol-2-ylcarbamoyl]-vinyl}-2-methoxy-phenyl ester] | 65%
O=C(NCc1ccncc1)c1nc(-c2ccc(Cl)cc2)cs1 [B34, 4-(4-Chloro-phenyl)thiazole-2-carboxylic acid (pyridin-4-ylmethyl)amide] | 28%
CN(C)c1ccc(CNC(=O)c2nc(-c3ccc(Cl)cc3)cs2)cc1 [B35, 4-(4-Chloro-phenyl)-thiazole-2-carboxylic acid 4-dimethylamino-benzylamide] | 17%
O=C(NCc1cc(F)cc(F)c1)c1nc(-c2ccc(Cl)cc2)cs1 [B36, 4-(4-Chloro-phenyl)-thiazole-2-carboxylic acid 3,5-difluoro-benzylamide] | 0%
O=C(NCc1ccc(Cl)c(C(F)(F)F)c1)c1nc(-c2ccc(Cl)cc2)cs1 [B37, 4-(4-Chloro-phenyl)-thiazole-2-carboxylic acid 4-chloro-3-trifluoromethyl-benzylamide] | 0%
O=C(NCc1ccc(F)cc1Cl)c1nc(-c2ccc(Cl)cc2)cs1 [B38, 4-(4-Chloro-phenyl)-thiazole-2-carboxylic acid 2-chloro-4-fluoro-benzylamide] | 0%
O=C(NCc1ccc(F)c(Cl)c1)c1nc(-c2ccc(Cl)cc2)cs1 [B39, 4-(4-Chloro-phenyl)-thiazole-2-carboxylic acid 3-chloro-4-fluoro-benzylamide] | 0%
O=C(NCc1ccc(F)c(F)c1)c1nc(-c2ccc(Cl)cc2)cs1 [B40, 4-(4-Chloro-phenyl)-thiazole-2-carboxylic acid 3,4-difluoro-benzylamide] | 0%
COc1ccc(CCNC(=O)c2nc(-c3ccc(Cl)cc3)cs2)cc1Br [B41, 4-(4-Chloro-phenyl)-thiazole-2-carboxylic acid [2-(3-bromo-4-methoxy-phenyl)-ethyl]-amide] | 0%
O=C(NCc1cc(F)c(F)c(F)c1)c1nc(-c2ccc(Cl)cc2)cs1 [B42, 4-(4-Chloro-phenyl)-thiazole-2-carboxylic acid 3,4,5-trifluoro-benzylamide] | 0%
O=C(NCc1cccc(OC(F)(F)F)c1)c1nc(-c2ccc(Cl)cc2)cs1 [B43, 4-(4-Chloro-phenyl)-thiazole-2-carboxylic acid 3-trifluoromethoxy-benzylamide] | 0%
O=C(NCCc1cccc(Oc2ccccc2)c1)c1nc(-c2ccc(Cl)cc2)cs1 [B44, 4-(4-Chloro-phenyl)-thiazole-2-carboxylic acid [2-(3-phenoxy-phenyl)-ethyl]-amide] | 0%

same assay, conditions: Homo sapiens; MDA-MB-231 cells, varying concentrations; concentration inhibiting S1P production by 50%

SMILES | IC50
O=C(NCCc1ccc(O)c(O)c1)C12CC3CC(C1)CC(c1ccc(Cl)cc1)(C3)C2 [A44, 3-(4-Chloro-phenyl)-adamantane-1-carboxylic acid [2-(3,4-dihydroxy-phenyl)-ethyl]-amide] | 35 µM
CCCC(=O)Oc1ccc(C=CC(=O)Nc2nc(-c3ccc(Cl)cc3)cs2)cc1OC [B8, Butyric acid 4-{2-[4-(4-chloro-phenyl)-thiazol-2-ylcarbamoyl]-vinyl}-2-methoxy-phenyl ester] | 34 µM
